Source: patent US8815935B2, “Inhibitors of protein prenyltransferases” (The Regents of the University of California, priority 2008, dated 2014)
Where two headings read alike, the source gives them in different places.

Experiments:
MiaPaCa2 = MiaPaCa2 cell growth inhibition; assay type: cell-based, human; settings: Homo sapiens, MIA PaCa-2, Tables 8-15; no unit printed there
Experimental: (§1) In FIG. 9-24 in vitro IC50 values for the GGTase I activity are reported. In Tables 7-15 in cell GI50 values for the growth inhibition of a variety of cancer cell lines (e.g., Jurkat, K562, MDA-MB-231, BT474, MCF7, MiaPaCa2, Aspc-1, Panc-1, Capan-2, CFpac-1, and MCF10a) are reported.
(§2) Cell viability was determined by Cell Counting Kit-8 (CCK-8, Dojindo, Kumamoto, Japan) as described previously (31). Cell viability was calculated relative to the DMSO control. Cell cycle profile was analyzed by flow cytometry as described previously (32).

Capan-2 = Capan-2 cell growth inhibition; assay type: cell-based, human; settings: Homo sapiens, Capan-2, Tables 8-15; no unit printed there
Experimental: as §1, §2

CFpac-1 = CFpac-1 cell growth inhibition; assay type: cell-based, human; settings: Homo sapiens, CFPAC-1, Tables 8-15; no unit printed there
Experimental: as §1, §2

GGTase-I = biological target: T1, GGTase-I (Rattus norvegicus, UniProt P53610+Q04631); test: In vitro GGTase-I enzyme assay (IC50, kinetics); assay type: biochemical
T1 construct: purchased JENA BIOSCIENCE
Experimental: The GGTase-I assay was carried out using RhoA as a substrate protein, GGTase-I (JENA Bioscience) and [3H]geranylgeranyl pyrophosphate. Incubation was for 30 min at 37° C. GGTase-II (or RabGGTase) assay was carried out using YPTI as a substrate protein, GGTase-II (Calbiochem, San Diego, Calif.) plus REP1 (Calbiochem) and [3H]geranylgeranyl pyrophosphate. Incubation was for 30 min at 37° C. FIGS. 20D-20F show the three dimensional structure of GGTase I (D), FTsse (E) and GGTase II (F) which can be obtained from X-ray diffraction studies of protein crystals.
GGTase-I and FTase activities were determined by following the incorporation of radiolabeled isoprenoid [^3H]-geranylgeranyl or [^3H]-farnesyl into substrate proteins. FTase or GGTase-I (50 nM) were used to initiate reactions containing 0.4 μM of [^3H]-FPP or 0.5 μM of [^3H]-GGPP and 2 μM of MBP-tagged substrates (K-Ras4B for FTase; RhoA for GGTase-I) in 20 μl of buffer {50 mM Tris-HCl (pH 7.5), 10 mM MgCl2, […] and 5 mM DTT}. Inhibitors were added at the indicated concentrations. The final DMSO concentration was 2.5% for all samples.
Reactions were carried out for 10 min at 30° C. The reaction mixture was spotted onto a filter paper, treated with 10% trichloroacetic acid (TCA) followed by ethanol and acetone washing. The filter was counted using a scintillation counter. Kinetic assays in which the GGPP concentration was varied employed fixed concentrations of GGTase-I and RhoA, and reactions were carried out for 5 min. Similarly, fixed concentrations of GGTase-I and GGPP were used when the amount of RhoA was varied.

Jurkat cells = test: Jurkat cell growth inhibition; assay type: cell-based, human
Experimental: In Table 4 in cell GI50 values for the growth inhibition of Jurkat cells are reported. The GI50 value is the concentration of a test compound needed to produce 50% growth inhibition in the cell type listed. In Table 4 the isolated yield of each synthetic step for the synthesis of corresponding compounds are also reported.
Panc-1 cells (Pancreatic cancer cell line) and Jurkat cells (T-cell leukemia) were treated with 12.5 μM of P5-H6 or 12.5 μM of mP5-H6a for 72 hours. The cell number was counted as described in Example 5.
as §2

K562 cells = test: K562 cell growth inhibition; assay type: cell-based, human
Experimental: K562 cells are a cell line of human erythroleukemia cells. The K562 cells were treated with P3-E5, P5-H6 or GGTI-298 (a known GGTI compound illustrated in FIG. 27) for 72 hours and then cell number was counted using cell counting kit-8 (Dojindo, Gaithersburg, Md.). Cell viability relative to the DMSO control and the known GGTI compound is plotted in FIG. 23.
as §2

MCF10a = MCF10a cell growth inhibition; assay type: cell-based
Description: as §1

MCF7 = MCF7 cell growth inhibition; assay type: cell-based, human; settings: Homo sapiens
Experimental: as §1, §2

[1] = Tables 3, 5, 7, read-out: In vitro (enzyme assay) IC50, GGTase I
[2] = Tables 8-15, no unit printed there (Table 7 head: μM unless otherwise specified), read-out: In vitro (GGTase I IC50)
[3] = Homo sapiens, Jurkat, Tables 4, 6, 7, read-out: Jurkat cell GI50
[4] = Homo sapiens, Jurkat, Tables 8-15, no unit printed there, read-out: Jurkat GI50
[5] = Homo sapiens, K562, Tables 8-15, no unit printed there

Row | Structure (SMILES) | IC50 (GGTase-I; [1]) [µM] | IC50 (GGTase-I; [2]) [µM] | GI50 (Jurkat cells; [3]) [µM] | GI50 (Jurkat cells; [4]) [µM] | GI50 (K562 cells; [5]) [µM] | further results
1 | Cc1ccccc1S(=O)(=O)N1C(c2cccc(Cl)c2)C(C(=O)N[C@@H](CC(C)C)C(N)=O)=CC[C@H]1c1ccc(Cl)cc1 (some centres unmarked) [drawing 202] |  |  |  |  |  | GI50 (MiaPaCa2): 12 µM; GI50 (Capan-2): 14 µM; GI50 (CFpac-1): 13.7 µM
2 | NC(=O)[C@H](Cc1ccccc1)NC(=O)C1=CC[C@@H](c2cccc(Br)c2)N(S(=O)(=O)c2ccc(Cl)cc2)C1c1cccc(Cl)c1 (some centres unmarked) [P61-D04] | 1.3 | 1.3 | 4.86 | 4.86 | 7.69 | 
3 | Cc1ccccc1S(=O)(=O)N1C(c2cccc(Cl)c2)C(C(=O)N[C@@H](CC(C)C)C(N)=O)=CC[C@H]1c1ccc(Cl)cc1 (some centres unmarked) [drawing 214] |  |  |  |  |  | GI50 (Jurkat cells; Tables 8-15, no unit printed there, read-out: Jurkat GI50): 6.1 µM; GI50 (MCF10a; Tables 8-15, no unit printed there): > 20 µM
4 | Cc1ccccc1S(=O)(=O)N1[C@@H](c2ccc(Cl)cc2)C(C(N)=O)=C[C@H]1C(C)(C)C | 1.6 |  | 11 |  |  | GI50 (K562 cells; Homo sapiens, K562, Table 7): 4.8 µM
5 | CC(C)C[C@H](NC(=O)C1=CC[C@@H](c2cccc(Cl)c2)N(S(=O)(=O)c2ccc(Br)cc2)C1c1cccc(Br)c1)C(N)=O (some centres unmarked) [P61-C09] | > 50 | > 50 |  |  |  | GI50 (Jurkat cells; Tables 4, 6, 7, read-out: Jurkat cell GI50): 6.38 µM; GI50 (Jurkat cells; Tables 8-15, no unit printed there, listed as P61C9, read-out: Jurkat GI50): 6.38 µM; GI50 (K562 cells; Tables 8-15, no unit printed there, listed as P61C9): 12.9 µM
6 | Cc1ccccc1S(=O)(=O)N1[C@@H](c2ccc(Cl)cc2)C(COCC(=O)N[C@@H](Cc2ccccc2)C(N)=O)=C[C@H]1C(C)(C)C |  | 0.7 |  | 1.3 | 5 | 
7 | CC(C)(C)[C@@H]1C=C(C(=O)O)[C@H](c2ccc(Cl)cc2)N1S(=O)(=O)C(C)(C)C |  | 28.9 |  | 5.36 | > 20 | 
8 | COC(=O)[C@H](Cc1ccccc1)NC(=O)COCC1=C[C@@H](C(C)(C)C)N(S(=O)(=O)c2ccccc2C)[C@H]1c1ccc(Cl)cc1 |  | 2.1 |  | 3.51 | 6.01 | GI50 (MCF7; MCF7, Tables 8-15, no unit printed there): 6.78 µM; GI50 (MCF10a; Homo sapiens, MCF-10A, Tables 8-15, no unit printed there): 20 µM
9 | CC(C)(C)[C@@H]1C=C(C(=O)N[C@@H](Cc2ccccc2)C(N)=O)[C@H](c2ccc(Cl)c(Cl)c2)N1S(=O)(=O)c1c(Cl)cccc1Cl [P61-D09] | > 50 | > 50 | 4.91 | 4.91 | 3.63 | 
10 | Cc1ccccc1S(=O)(=O)N1[C@@H](c2ccc(Cl)cc2)C(C(=O)NO)=C[C@H]1C(C)(C)C | 1.3 |  | 4.02 |  |  | GI50 (K562 cells; Homo sapiens, K562, Table 7): 10.3 µM; GI50 (MCF7; MCF7, Table 7): 2.52 µM; GI50 (MCF10a; Homo sapiens, MCF-10A, Table 7): 11.4 µM
11 | Cc1ccccc1S(=O)(=O)N1C(c2cccc(Cl)c2)C(CO)=CC[C@H]1c1ccc(Cl)cc1 (some centres unmarked) |  | > 100 |  | 7.5 | 5.8 | 
12 | COC(=O)[C@H](Cc1ccccc1)NC(=O)C1=C[C@@H](C(C)(C)C)N(S(=O)(=O)c2ccccc2C)[C@H]1c1ccc(Cl)cc1 [P61-A04] | > 50 | > 50 | 19 | 19 | 14 | 
13 | Cc1ccccc1S(=O)(=O)N1[C@@H](c2ccc(Cl)cc2)C(CO)=C[C@H]1C(C)(C)C | 2.2 |  | 5.8 |  |  | GI50 (K562 cells; Homo sapiens, K562, Table 7): 6 µM
